# Measurements taken from publication PMC6843571, “Effects of Single Nucleotide Polymorphism Ala270Ser (rs316019) on the Function and Regulation of hOCT2” (Biomolecules, 2019).
# Substitutions are numbered along the chain they refer to. Several values for one entry are separate records, joined by “and”; a condition that tells them apart may be missing. Equal values may be shown once.
# Tests used:
# [1] = test system: hOCT2 Ala270Ser-mediated ASP^+ uptake; assay: Rapid regulation of ASP+ uptake, hOCT2 Ala270Ser cells; type: cell-based, human; details: 1 µM ASP^+, compared to control
# Description: (§1) Moreover, since it is known that the activity of hOCT2 can be regulated by several kinases, the effect of the Ala270Ser substitution on regulation by calmodulin and p56^lck tyrosine kinase of hOCT2 was investigated. The regulation by these two pathways is conserved along all the OCTs. To study the rapid regulation of hOCT2, cells were incubated for 10 min at 37 °C with calmidazolium (5 µM), a potent specific inhibitor of calmodulin [24], with aminogenistein (10 µM), a specific inhibitor of p56^lck tyrosine kinase, or with ringer-like solution as a control. Regulators were dissolved in ethanol (calmidazolium) or DMSO (aminogenistein) at a concentration that had no impact on ASP^+ transport. After incubation, fluorescence measurements were carried out with 1 µM ASP^+.
# [2] = test system: hOCT2 WT-mediated ASP^+ uptake; assay: Rapid regulation of ASP+ uptake, hOCT2 WT cells; type: cell-based, human; details: 1 µM ASP^+, compared to control
# Description: as §1
# hOCT2 WT [3] = molecular target: T1, hOCT2 WT (Homo sapiens, UniProt O15244, S270A); assay: Inhibition of ASP+ uptake by competitors, hOCT2 WT; type: cell-based; details: 1 µM ASP^+, hOCT2 WT cells; for hOCT2 WT logIC50 ± SEM: log of IC50, in parenthesis in Table 1
# T1 construct: expressed in transfected cells
# T1 sequence (O15244 1-555 S270A): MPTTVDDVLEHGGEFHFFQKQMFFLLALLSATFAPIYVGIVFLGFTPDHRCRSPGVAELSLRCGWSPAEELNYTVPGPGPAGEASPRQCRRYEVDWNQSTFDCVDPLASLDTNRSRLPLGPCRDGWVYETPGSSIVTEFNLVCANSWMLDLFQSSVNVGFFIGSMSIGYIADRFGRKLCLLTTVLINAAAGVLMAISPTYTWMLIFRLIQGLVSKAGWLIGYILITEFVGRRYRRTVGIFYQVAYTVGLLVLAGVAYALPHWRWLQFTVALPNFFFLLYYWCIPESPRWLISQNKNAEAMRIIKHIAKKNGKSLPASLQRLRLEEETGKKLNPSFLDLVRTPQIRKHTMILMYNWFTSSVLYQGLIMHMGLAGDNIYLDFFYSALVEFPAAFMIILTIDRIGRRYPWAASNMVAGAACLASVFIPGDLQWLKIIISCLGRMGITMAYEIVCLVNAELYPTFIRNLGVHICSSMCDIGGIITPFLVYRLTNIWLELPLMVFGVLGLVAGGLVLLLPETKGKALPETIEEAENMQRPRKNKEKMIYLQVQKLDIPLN
# hOCT2 WT [4] = molecular target: T2, hOCT2 WT (Homo sapiens, UniProt O15244); assay: Inhibition of ASP+ uptake by competitors, hOCT2 WT; type: cell-based; details: 1 µM ASP^+; HEK293 hOCT2 WT cells; 37 °C, pH 7.4; read-out: hOCT2 WT IC50 (apparent affinity, inhibition of ASP^+ uptake)
# T2 construct: expressed in transfected cells
# T2 sequence (O15244 1-555 S270A): T1 sequence (O15244 1-555 S270A)
# hOCT2 Ala270Ser [5] = molecular target: T3, hOCT2 Ala270Ser (Homo sapiens, UniProt O15244); assay: Inhibition of ASP+ uptake by competitors, hOCT2 Ala270Ser; type: cell-based; details: 1 µM ASP^+; for IC50: HEK293 hOCT2 Ala270Ser cells, 37 °C, pH 7.4, read-out: hOCT2 Ala270Ser IC50 (apparent affinity, inhibition of ASP^+ uptake); for hOCT2 Ala270Ser logIC50 ± SEM: log of IC50, in parenthesis in Table 1
# T3 construct: expressed in transfected cells
# T3 sequence (O15244 1-555): T1 sequence (O15244 1-555 S270A) with A270S
# hOCT2 Ala270Ser [6] = molecular target: T3, hOCT2 Ala270Ser; assay: ASP+ uptake saturation experiments (microfluorimetry), hOCT2 Ala270Ser; type: cell-based; details: hOCT2 Ala270Ser in stably transfected HEK cells
# Description: (§2) Measurement of hOCT2 function in HEK293 cells was performed using microfluorimetry with the fluorescent organic cation 4-(4-(dimethylamino)styryl)-N-methylpyridinium (ASP^+) as the substrate, as described previously in detail. As shown in previous work, this method allows a real-time measurement of the transporter function. The initial rate of ASP^+ uptake was calculated, as it reflects the activity of the transporter.
# (§3) Briefly, ASP^+ cellular fluorescence was measured in a microtiterplate reader (Tecan infinite m200; Tecan, Crailsheim, Germany) at 37 °C using an excitation wavelength of 450 nm and an emission of 590 nm. Before fluorescence measurements, cells confluently grown in 96-well plates were washed in ringer-like solution (in mmol/L: 145 NaCl, 1.6 K2HPO4, 0.4 KH2PO4, 5 D-glucose, 1 MgCl2, 1.3 calcium gluconate, pH 7.4). Cell fluorescence was measured before and after ASP^+ addition to the cells. The kinetic characteristics of hOCT WT and hOCT2 Ala270Ser were investigated performing saturation experiments with increasing ASP^+ concentrations. Non-hOCT2-mediated ASP^+ uptake was evaluated in the presence of a huge amount (1 mM) of tetrapentylammonium (TPA^+) and subtracted from the total ASP^+ uptake in order to evaluate the ASP^+ uptake mediated specifically by hOCT2, as shown already in References. […]
# hOCT2 WT [7] = molecular target: T1, hOCT2 WT; assay: ASP+ uptake saturation experiments (microfluorimetry), hOCT2 WT; type: cell-based; details: hOCT2 WT in stably transfected HEK cells; specific uptake
# Description: as §2, §3
# hOCT2 WT [8] = molecular target: T2, hOCT2 WT; assay: as above; type: cell-based; details: hOCT2 WT in stably transfected HEK cells; specific uptake (minus uptake with 1 mM TPA^+); 37 °C, pH 7.4
# Description: as §2, §3
# hOCT2 WT cells = assay: Cytoviability (MTT) assay, hOCT2 WT cells; type: cell-based, human
# Description: (§4) The cytotoxicity of cisplatin was evaluated using a modified 3-(4,5-dimethylthiazol-2-yl)-2,5-diphenyltetrazoliumbromid (MTT) assay. The HEK293 cells grown for 24 hours in 96-well plates were incubated for 10 min at 37 °C with different concentrations of cisplatin (Calbiochem, Merck Chemicals GmbH, Darmstadt, Germany) dissolved in a ringer-like solution. The cisplatin solution was then removed, and the cells were grown in fresh medium for 48 hours. Afterwards, the cells were incubated with 10 µL MTT (Sigma, Steinheim, Germany) solution containing 5 mg/mL of the dye for three hours at 37 °C. Then, MTT was removed, and the cells were lysed with a solution containing 10% (w/v) sodium dodecyl sulfate and 40% (v/v) dimethylformamide. After 90 min, absorption was measured at 570 nm in a multiplate reader (Tecan infinite m200, Tecan, Tecan Group Ltd., Crailsheim, Germany).
# hOCT2 WT [9] = molecular target: T2, hOCT2 WT; assay: Cellular platinum accumulation by ICP-MS, hOCT2 WT cells; type: cell-based; details: 2 min incubation with 100 µM cisplatin, mean ± SEM
# Description: (§5) Intracellular cisplatin concentrations were determined using inductively coupled plasma mass spectrometry (ICP-MS), which provides information on the elemental concentration in samples [27, 28], as described before. To do this, cells were grown for five days on 6-well plates and incubated at 37 °C for 2 min with 2 mL of 100 µM cisplatin freshly prepared in a ringer-like solution. After incubation, cells were rapidly washed with ice-cold PBS and then hypotonically lysed using distilled water and sonication for 15 min. For the ICP-MS analysis, 100 µL of cell lysates together with 100 µL of rhodium standard (Rh 1000 µg/mL, Scpscience, Marktoberdorf, Germany) were mixed with 9.8 mL 2% HNO3. Standard platinum for ICP (Merck) was diluted in 2% HNO3, and linear regression was performed (r² = 0.998 and 0.999). Samples were analyzed using ICP-MS iCap QC, autosampler AccelaAS (Thermo Fisher Scientific, Bremen, Germany) and Qtegra ISDS software (Thermo Fisher Scientific). The protein content of lysed cells was determined by absorption measurements using PicoDrop Pico 1000 (PicoDrop, Saffron Walden, UK).
# hOCT2 Ala270Ser [10] = molecular target: T3, hOCT2 Ala270Ser; assay: Cellular platinum accumulation by ICP-MS, hOCT2 Ala270Ser cells; type: cell-based; details: 2 min incubation with 100 µM cisplatin, mean ± SEM
# Description: as §5
# hOCT2 Ala270Ser cells = assay: Cytoviability (MTT) assay, hOCT2 Ala270Ser cells; type: cell-based, human
# Description: as §4
# [11] = 10 min incubation with 10 µM aminogenistein
# [12] = 10 min incubation, then 48 hours in fresh medium
# [13] = read-out: EC50 (concentration giving 50% of the toxic effect), MTT assay, 10 min incubation, then 48 hours in fresh medium
# [14] = 10 min incubation with 5 µM calmidazolium
smiles,measurement,setting,value
Nc1ccc(-c2cc(=O)c3cc(O)ccc3o2)cc1 [aminogenistein],Effect on hOCT2 Ala270Ser-mediated ASP^+ uptake (inhibition of p56^lck tyrosine kinase),[1]; [11],strong significant inhibition
same,Effect on hOCT2 WT-mediated ASP^+ uptake (inhibition of p56^lck tyrosine kinase),[2]; [11],strong significant inhibition
"CN(C)CCCN1c2ccccc2CCc2ccccc21 [Imipramine, imipramine]",hOCT2 WT logIC50 ± SEM,hOCT2 WT [3],−2.71 ± 0.06
"Cc1ncc(C[n+]2csc(CCO)c2C)c(N)n1 [Thiamin, thiamine]",hOCT2 WT logIC50 ± SEM,hOCT2 WT [3],−4.06 ± 0.05
same,IC50,hOCT2 WT [4],87 µM
same,IC50,hOCT2 Ala270Ser [5],106 µM
same,hOCT2 Ala270Ser logIC50 ± SEM,hOCT2 Ala270Ser [5]; hOCT2 Ala270Ser cells,−3.98 ± 0.06
"N[C@@H](Cc1c[nH]c2ccccc12)C(=O)O [Tryptophan, tryptophan]",Inhibition of ASP^+ uptake (in words),hOCT2 WT [3],inhibit a small part of the ASP^+ uptake only at very high concentrations
same,hOCT2 WT logIC50 ± SEM,hOCT2 WT [3],−2.27 ± 0.28
same,IC50,hOCT2 WT [4],~5400 µM
same,IC50,hOCT2 Ala270Ser [5],~2400 µM
same,Inhibition of ASP^+ uptake (in words),hOCT2 Ala270Ser [5]; hOCT2 Ala270Ser cells,inhibit a small part of the ASP^+ uptake only at very high concentrations
same,hOCT2 Ala270Ser logIC50 ± SEM,hOCT2 Ala270Ser [5]; hOCT2 Ala270Ser cells,−2.61 ± 0.28
"CN(C)c1ccc(C=Cc2cc[n+](C)cc2)cc1 [ASP^+, 4-(4-(dimethylamino)styryl)-N-methylpyridinium]",Vmax of ASP^+ uptake,hOCT2 Ala270Ser [6]; specific uptake,484 ± 50 arbitrary units/µg protein s^2
same,Km,"hOCT2 Ala270Ser [6]; specific uptake (minus uptake with 1 mM TPA^+), 37 °C, pH 7.4",4.9 ± 1.6 µM
same,Vmax of ASP^+ uptake,hOCT2 WT [7],516 ± 23 arbitrary units/µg protein s^2
same,Km,hOCT2 WT [8],4 ± 1 µM
"CN1CC(=O)NC1=N [Creatinine, creatinine]",hOCT2 WT logIC50 ± SEM,hOCT2 WT [3],−1.73 ± 0.04
same,IC50,hOCT2 WT [4],18600 µM
same,IC50,hOCT2 Ala270Ser [5],9800 µM
same,hOCT2 Ala270Ser logIC50 ± SEM,hOCT2 Ala270Ser [5]; hOCT2 Ala270Ser cells,−2.01 ± 0.06
"CN(C)C(=N)N=C(N)N [Metformin, metformin]",hOCT2 WT logIC50 ± SEM,hOCT2 WT [3],−3.06 ± 0.05
same,IC50,hOCT2 WT [4],900 µM and 868 µM
same,IC50,hOCT2 Ala270Ser [5],800 µM and 848 µM
same,hOCT2 Ala270Ser logIC50 ± SEM,hOCT2 Ala270Ser [5]; hOCT2 Ala270Ser cells,−3.07 ± 0.05
"N.N.[Cl][Pt][Cl] [Cisplatin, cisplatin]","logEC50 ± SEM, MTT assay",hOCT2 WT cells; [12],−4.89 ± 0.11
same,EC50,hOCT2 WT cells; [13],13 µM
same,Cellular platinum concentration,hOCT2 WT [9],264 ± 10 µg Pt/g protein
same,hOCT2 WT logIC50 ± SEM,hOCT2 WT [3],−4.80 ± 0.10
same,IC50,hOCT2 WT [4],16 µM
same,IC50,hOCT2 Ala270Ser [5],9 µM
same,hOCT2 Ala270Ser logIC50 ± SEM,hOCT2 Ala270Ser [5]; hOCT2 Ala270Ser cells,−5.04 ± 0.11
same,Cellular platinum concentration,hOCT2 Ala270Ser [10],221 ± 10 µg Pt/g protein
same,"logEC50 ± SEM, MTT assay",hOCT2 Ala270Ser cells; [12],−4.48 ± 0.05
same,EC50,hOCT2 Ala270Ser cells; [13],33 µM
"CN/C(=N/CCSCc1nc[nH]c1C)NC#N [Cimetidine, cimetidine]",hOCT2 WT logIC50 ± SEM,hOCT2 WT [3],−4.64 ± 0.12
same,IC50,hOCT2 WT [4],23 µM
same,IC50,hOCT2 Ala270Ser [5],40 µM
same,hOCT2 Ala270Ser logIC50 ± SEM,hOCT2 Ala270Ser [5]; hOCT2 Ala270Ser cells,−4.40 ± 0.19
"NCCc1c[nH]cn1 [Histamine, histamine]",hOCT2 WT logIC50 ± SEM,hOCT2 WT [3],−2.33 ± 0.06
same,IC50,hOCT2 WT [4],4600 µM
same,IC50,hOCT2 Ala270Ser [5],4000 µM
same,hOCT2 Ala270Ser logIC50 ± SEM,hOCT2 Ala270Ser [5]; hOCT2 Ala270Ser cells,−2.40 ± 0.07
Clc1ccc(C(c2ccc(Cl)cc2)n2cc[n+](CC(OCc3ccc(Cl)cc3Cl)c3ccc(Cl)cc3Cl)c2)cc1 (stereo not drawn) [calmidazolium],Effect on hOCT2 Ala270Ser-mediated ASP^+ uptake (inhibition of calmodulin),[1]; [14],strong significant inhibition
same,Effect on hOCT2 WT-mediated ASP^+ uptake (inhibition of calmodulin),[2]; [14],strong significant inhibition
